How the values were obtained:
5-LO = biological target: T1, 5-LO (Homo sapiens, UniProt P09917); test: Test b): heparinised human blood challenged with A23187, radioimmunoassay of LTB₄; assay type: cell-based; conditions: heparinised human blood, calcium ionophore A23187 challenge; read-out: IC₅₀ against LTB₄ in test b)
T1 construct: incubating a test compound with heparinised human blood, prior to challenge with the calcium ionophore A23187; endogenous in cells; host or cells: human whole blood (heparinised), blood cells
T1 sequence (P09917 1-674): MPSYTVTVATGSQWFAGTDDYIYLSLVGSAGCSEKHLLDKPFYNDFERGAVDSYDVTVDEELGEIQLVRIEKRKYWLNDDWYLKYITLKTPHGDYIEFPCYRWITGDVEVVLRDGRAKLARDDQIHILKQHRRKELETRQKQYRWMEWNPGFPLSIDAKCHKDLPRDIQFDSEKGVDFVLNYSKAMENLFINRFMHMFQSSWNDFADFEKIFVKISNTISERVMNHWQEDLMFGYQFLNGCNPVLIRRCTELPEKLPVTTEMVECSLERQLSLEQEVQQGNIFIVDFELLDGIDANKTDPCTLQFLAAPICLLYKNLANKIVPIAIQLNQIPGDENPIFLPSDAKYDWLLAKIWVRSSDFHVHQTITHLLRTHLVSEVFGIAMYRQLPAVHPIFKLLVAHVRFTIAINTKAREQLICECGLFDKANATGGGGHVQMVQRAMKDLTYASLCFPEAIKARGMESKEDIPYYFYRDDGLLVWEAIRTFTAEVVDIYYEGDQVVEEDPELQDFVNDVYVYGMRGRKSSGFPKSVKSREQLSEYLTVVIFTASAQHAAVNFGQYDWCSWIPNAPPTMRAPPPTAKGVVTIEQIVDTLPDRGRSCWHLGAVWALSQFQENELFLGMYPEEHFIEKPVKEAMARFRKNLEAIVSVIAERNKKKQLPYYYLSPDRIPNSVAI
Procedure: (§1) As stated previously, the heterocyclic cyclic ethers of the formula I are inhibitors of the enzyme 5-LO. […] This test provides a measure of the intrinsic inhibitory properties against soluble 5-LO in an extracellular environment. • b) An in vitro assay system involving incubating a test compound with heparinised human blood, prior to challenge with the calcium ionophore A23187 and then indirectly measuring the inhibitory effects on 5-LO by assaying the amount of LTB₄ using the specific radioimmunoassay described by Carey and Forder (F. Carey and R.A. Forder, Brit. […] The effects of a test compound on the enzyme cyclooxygenase (which is involved in the alternative metabolic pathway for arachidonic acid and gives rise to prostaglandins, thromboxanes and related metabolites) may be measured at the same time using the specific radioimmunoassay for thromboxane B₂(TxB₂) described by Carey and Forder (see above). […] It permits the selectivity of the inhibitory effect on 5-LO or cyclooxygenase to be assessed. • c) An ex vivo assay system, which is a variation of test b) above, involving administration of a test compound (usually orally as the suspension produced when a solution of the test compound in dimethylsulphoxide is added to carboxymethylcellulose), blood collection, heparinisation, challenge with A23187 and radioimmunoassay of LTB₄ and TxB₂. […]

cyclooxygenase = biological target: T2, cyclooxygenase (Homo sapiens, UniProt P23219); test: Test b): heparinised human blood challenged with A23187, radioimmunoassay of TxB₂; assay type: cell-based; conditions: heparinised human blood, calcium ionophore A23187 challenge; read-out: IC₅₀ against TxB₂ in test b)
T2 construct: may be measured at the same time using the specific radioimmunoassay for thromboxane B₂(TxB₂); endogenous in cells; host or cells: human whole blood (heparinised), blood cells
Procedure: as §1

T2 sequence (P23219 24-599): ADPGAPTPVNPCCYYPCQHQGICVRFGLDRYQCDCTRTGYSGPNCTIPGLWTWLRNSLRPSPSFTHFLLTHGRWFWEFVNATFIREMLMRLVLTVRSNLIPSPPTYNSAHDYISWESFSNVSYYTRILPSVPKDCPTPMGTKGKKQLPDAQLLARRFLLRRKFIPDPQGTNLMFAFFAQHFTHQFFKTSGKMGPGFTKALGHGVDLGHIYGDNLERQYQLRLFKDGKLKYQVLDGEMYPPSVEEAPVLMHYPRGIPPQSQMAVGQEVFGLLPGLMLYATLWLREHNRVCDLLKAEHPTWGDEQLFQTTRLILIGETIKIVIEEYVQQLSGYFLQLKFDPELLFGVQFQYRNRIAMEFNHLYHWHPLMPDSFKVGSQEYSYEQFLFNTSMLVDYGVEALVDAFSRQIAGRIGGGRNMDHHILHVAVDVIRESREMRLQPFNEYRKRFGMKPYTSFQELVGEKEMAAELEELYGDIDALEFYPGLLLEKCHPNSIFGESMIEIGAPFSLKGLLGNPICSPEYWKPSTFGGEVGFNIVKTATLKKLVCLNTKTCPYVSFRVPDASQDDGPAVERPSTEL

IC50 (5-LO) | IC50 (cyclooxygenase) | Structure (SMILES)
800 nM | > 40000 nM | CCC1(c2cccc(OCC#Cc3ccccn3)c2)COC(C)(C)O1 (stereo not drawn) [2,2-dimethyl-4-ethyl-4-[3-(3-(2-pyridyl)prop-2-yn-1-yloxy)phenyl]-1,3-dioxolane]
80 nM | – | CCC1(c2cc(F)cc(OCc3ccc4c(ccc(=O)n4C)c3)c2)COC(C)(C)O1 (stereo not drawn) [4-ethyl-4-[5-fluoro-3-(1,2-dihydro-1-methyl-2-oxoquinolin-6-ylmethoxy)phenyl]-2,2-dimethyl-1,3-dioxolane]

From patent EP0385679B1, “Heterocyclic cyclic ethers with inhibitory activity on 5-lipoxygenase” (ZENECA LIMITED, priority 1989, dated 1990)
